Test results as given in US20260078099A1, “COMPOUND, PREPARATION METHOD THEREOF, AND LIPID NANOPARTICLE AND PHARMACEUTICAL COMPOSITION” (priority 2023, published 2026).

Key:
[1] = LNP encapsulation efficiency (Quant-it Ribogreen); assay type: physicochemical; conditions: mRNA LNP, cationic lipid/DSPC/cholesterol/PEG-lipid 50:10:38.5:1.5
Text: Encapsulation Efficiency: The encapsulation efficiency of a therapeutic and/or prophylactic agent refers to the amount of the therapeutic and/or prophylactic agent encapsulated within or otherwise associated with the nanoparticle composition relative to the initial amount provided during preparation. Encapsulation efficiency is desirably high (such as close to 100%). Encapsulation efficiency can be measured, for example, by comparing the amount of therapeutic and/or prophylactic agent in a solution containing the nanoparticle composition before and after disruption of the nanoparticle composition using one or more organic solvents or detergents. Fluorescence can be used to measure the amount of free therapeutic and/or prophylactic agent (e.g., RNA) in solution. For the nanoparticle compositions described herein, the encapsulation efficiency of the therapeutic and/or prophylactic agent may be at least 50%, such as 50%, 55%, 60%, 65%, 70%, 75%, 80%, 85%, 90%, 91%, 92%, 93%, 94%, 95%, 96%, 97%, 98%, 99%, or 100%. In some embodiments, the encapsulation efficiency may be at least 80%. In certain embodiments, the encapsulation efficiency may be at least 90%.
(§1) In summary, the cationic lipid described herein, DSPC, cholesterol, and PEG-lipid were dissolved in ethanol at a molar ratio of 50:10:38.5:1.5 and diluted in 10 mM to 50 mM citrate buffer at pH 4 with mRNA. Using a microfluidic device, the lipid ethanol solution was mixed with mRNA aqueous solution at a volume ratio of 1:3 and a total flow rate ranging from 6-30 mL/min, preparing LNPs with a total lipid to mRNA weight ratio of approximately 10:1 to 30:1. Ethanol was removed by dialysis and replaced with PBS. Finally, the lipid nanoparticles were filtered through a 0.22 μm sterile filter.
(§2) The size of lipid nanoparticles was measured by dynamic light scattering using a Malvern Zetasizer Nano ZS (Malvern, UK) with a 90° scattering detection mode. The encapsulation efficiency of lipid nanoparticles was determined using the Quant-it Ribogreen RNA Quantitation Kit (Thermo Fisher Scientific, UK) according to the manufacturer's instructions. The apparent pKa of LNP formulations correlates with the delivery efficiency of nucleic acids by LNPs in vivo. The apparent pKa ranges from approximately 5 to 7. An analysis based on fluorescence from 2-(p-tolylamino)-6-naphthalenesulfonic acid (TNS) was used to determine the apparent pKa of formulations. As described above, LNP formulations containing cationic lipid/DSPC/cholesterol/DMG-PEG (50/10/38.5/1.5 mol %) in PBS were prepared. A 300 μM stock solution of TNS in distilled water was prepared. LNP formulations were diluted to 0.1 mg/mL total lipid in 3 mL of buffer solution containing 50 mM sodium citrate, 50 mM sodium phosphate, 50 mM sodium borate, and 30 mM sodium chloride (pH ranged from 3 to 9). […] S-shaped curve best-fit analysis was applied to the fluorescence data, and the pKa value was measured as the pH value producing half-maximal fluorescence intensity.

mice = assay: Bioluminescent study, intramuscular injection of F-luc mRNA LNPs; assay type: in vivo; conditions: F-luc luminescence flux normalized to MC3; 0.25 mg/kg intramuscular, mice n=3, 6-hour time point
Procedure: The efficacy of nanoparticle compositions was evaluated using bioluminescent studies. A dose of 0.25 mg/kg (mpk) of the formulation was administered to mice (n=3) via intramuscular injection, and bioluminescence was measured at a 6-hour time point. The test lipid nanoparticles from the MC3 formulation were evaluated, and in some cases, controls (e.g., PBS controls) were assessed for comparison.
The characteristics of the test lipid nanoparticles measured from the test groups, including F-luc luminescence intensity, are listed in the table below.

[2] = LNP size and PDI by dynamic light scattering; assay type: physicochemical; conditions: mRNA LNP, cationic lipid/DSPC/cholesterol/PEG-lipid 50:10:38.5:1.5
Procedure: as §1, §2

LNP zeta potential = assay type: physicochemical; conditions: mRNA LNP
Text: Nanoparticle compositions can be characterized by various methods. For example, the morphology and size distribution of nanoparticle compositions can be examined using microscopy (e.g., transmission electron microscopy or scanning electron microscopy). The zeta potential can be measured using dynamic light scattering or potentiometric titration. Dynamic light scattering can also be used to determine particle size. Instruments such as the Zetasizer Nano ZS (Malvern Instruments Ltd., Malvern, Worcestershire, UK) can also be used to measure multiple characteristics of nanoparticle compositions, such as particle size, polydispersity index, and zeta potential.
[…]: The zeta potential of the nanoparticle composition can indicate the electrophoretic potential of the composition. For example, zeta potential may describe the surface charge of the nanoparticle composition. Nanoparticle compositions with relatively low positive or negative charges are generally desirable, as materials with higher charges may interact undesirably with cells, tissues, and other components in the body. In some embodiments, the zeta potential of the nanoparticle composition may be about −10 mV to about +20 mV, about −10 mV to about +15 mV, about −10 mV to about +10 mV, about −10 mV to about +5 mV, about −10 mV to about 0 mV, about −10 mV to about −5 mV, about −5 mV to about +20 mV, about −5 mV to about +15 mV, about −5 mV to about +10 mV, about −5 mV to about +5 mV, about −5 mV to about 0 mV, about 0 mV to about +20 mV, about 0 mV to about +15 mV, about 0 mV to about +10 mV, about 0 mV to about +5 mV, about +5 mV to about +20 mV, about +5 mV to about +15 mV, or about +5 mV to about +10 mV.

Encapsulation efficiency (%) [1] [%] | PDI [2] | Size (nm) [2] [nm] | Zeta potential (mV) (LNP zeta potential) | Structure (SMILES) | Relative Total flux (mice)
92.88 | 0.16 | 66.98 | −19.03 | CCCCCCCCC(C(=O)NCCCCCCCCCC(=O)OCC12CC3CC(CC(C3)C1)C2)N(CCCN1CCCC1)C(=O)CCCCCCCCCC(=O)OC(CCCCCC)CCCCCC (centres unmarked) [Compound A8] | D (D: <0.1.)
87.17 | 0.136 | 78.14 | −15.20 | CCCCCCCCC(C(=O)NCCCCCCCCCC(=O)OCC12CC3CC(CC(C3)C1)C2)N(CCCN(C)C)C(=O)CCCCCCCCCC(=O)OC(CCCCCC)CCCCCC (centres unmarked) [Compound A18] | D (D: <0.1.)
85.36 | 0.116 | 58.86 | −2.80 | CCCCCCCC(C(=O)NCCCCCCCCCC(=O)OC(CCCCCC)CCCCCC)N(CCN(CO)CO)C(=O)CCCCCCCCCC(=O)OC(CCCCCC)CCCCCC (centres unmarked) [Compound B7] | A (A: ≥2)
93.97 | 0.08 | 64.27 | 3.81 | CCCCCCCCNC(=O)C(CCCCCCCC)N(CCCN(C)CCO)C(=O)CCCCCCC(=O)OC(CCCCCCCC)CCCCCCCC (centres unmarked) [Compound B30] | A (A: ≥2)
91.26 | 0.198 | 64.58 | −14.75 | CCCCC/C=C\C/C=C\CCCCCCCCNC(=O)C(CCCCCCCC)N(CCCCCCCC/C=C\C/C=C\CCCCC)C(=O)CCCN1CCN(C)CC1 (centres unmarked) [Compound C5] | D (D: <0.1.)
82.17 | 0.24 | 78.44 | −0.77 | CCCCCC/C=C\CCCCCCCC(C(=O)NCCCCCCCC/C=C\CCCCCCCC)N(CCCN(C)C)C(=O)CCCCCCC/C=C\CCCCCCCC (centres unmarked) [Compound C8] | A (A: ≥2)
95.23 | 0.19 | 90.78 | −1.88 | CCCCCCCCCCOCCCCCCCC(=O)N(CCCN(C)C)C(CCCCCCCC)C(=O)NCCCCCCCC (centres unmarked) [Compound A42] | A (A: ≥2)
93.95 | 0.251 | 113.2 | 4.75 | CCCCCCCCC(C(=O)NCCCCCCCCCC(=O)OCCCCCC)N(CCCN(C)C)C(=O)CCCCCCCCCC(=O)OC(CCCCCC)CCCCCC (centres unmarked) [Compound A15] | A (A: ≥2)
97.34 | 0.19 | 74.92 | −7.81 | CCCCCCCCNC(=O)C(CCCCCCCC)N(CCCCN(C)C)C(=O)CCCCCCC(=O)OC(CCCCCCCC)CCCCCCCC (centres unmarked) [Compound A35] | A (A: ≥2)
94.62 | 0.08 | 64.27 | 0.65 | CCCCCCCCC(CCCCCCCC)OC(=O)CCCCCC(=O)N(CCCN(C)C)C(CCCCCCCC)C(=O)NCCCCCC(=O)OCCC12CC3CC(CC(C3)C1)C2 (centres unmarked) [Compound A48] | A (A: ≥2)
93.77 | 0.158 | 85.75 | 0.85 | CCCCCCC(CCCCCC)OC(=O)CCCCCCCCCNC(=O)C(CCCCCCCCCC(=O)OC(CCCCCC)CCCCCC)N(CCCN1CCN(CO)CC1)C(=O)CCCN1CCN(CCO)CC1 (centres unmarked) [Compound E11] | B (B: ≥1 and <2)
89.28 | 0.166 | 93.07 | −2.06 | CCCCCCC(CCCCCC)OC(=O)CCCCCCCCCNC(=O)C(CCCCCCCCCC(=O)OC(CCCCCC)CCCCCC)N(CCCN(CCO)CCO)C(=O)CCCN(C)C (centres unmarked) [Compound E3] | C (C: ≥0.1 and <1)
96.30 | 0.182 | 92.75 | −18.58 | CCCCCCC(CCCCCC)OC(=O)CCCCCCCCCNC(=O)C(CCCCCCCCCC(=O)OC(CCCCCC)CCCCCC)N(CCCN1CCCC1)C(=O)CCCN1CCCC1 (centres unmarked) [Compound E8] | B (B: ≥1 and <2)
94.69 | 0.10 | 79.84 | 0.51 | CCCCCCCCNC(=O)C(CCCCCCCC)N(CCCN(CC)CC)C(=O)CCCCCCC(=O)OC(CCCCCCCC)CCCCCCCC (centres unmarked) [Compound A33] | A (A: ≥2)
97.34 | 0.202 | 72.85 | 5.65 | CCCCCCCCC(CCCCCC)COC(=O)CCCCCCCCCNC(=O)C(CCCCCCCC)N(CCCN1CCCC1)C(=O)CCCCCCCCCC(=O)OCC(CCCCCC)CCCCCCCC (centres unmarked) [Compound A4] | D (D: <0.1.)
43.24 | 0.163 | 113.2 | −5.91 | CCCCCCCCCCCNC(=O)C(CCCCCCCC)N(CCN(C)CCN(C(=O)CCCCCCCCCC(=O)OC(CCCCCC)CCCCCC)C(CCCCCCCC)C(=O)NCCCCCCCCCC)C(=O)CCCCCCCCCC(=O)OC(CCCCCC)CCCCCC (centres unmarked) [Compound D4] | C (C: ≥0.1 and <1)
96.65 | 0.12 | 86.87 | 0.47 | CCCCCCCCNC(=O)C(CCCCCCC)N(CCCN(C)C)C(=O)CCCCCCC(=O)OC(CCCCCCCC)CCCCCCCC (centres unmarked) [Compound A30] | B (B: ≥1 and <2)
96.10 | 0.274 | 62.53 | 4.99 | CCCCCCCC(C(=O)NCCCCCCCCCC(=O)OC(CCCCCC)CCCCCC)N(CCCN1CCCC1)C(=O)CCCCCCCCCC(=O)OCC12CC3CC(CC(C3)C1)C2 (centres unmarked) [Compound A7] | C (C: ≥0.1 and <1)

Structure (SMILES) | Encapsulation efficiency (%) [1] [%] | PDI [2] | Size (nm) [2] [nm] | Zeta potential (mV) (LNP zeta potential) | Relative Total flux (mice)
CCCCCCCC/C=C\CCCCCCCCNC(=O)C(CCCCCCCC)N(CCCCCCCC/C=C\CCCCCCCC)C(=O)CCCN(C)C (centres unmarked) [Compound C1] | 82.31 | 0.108 | 60.62 | −9.90 | B (B: ≥1 and <2)
